Patent US9572787B2, “Inhibition of renal fibrosis” (Rhode Island Hospital, priority 2011, dated 2017)

Tests used:
NRK-49F cells = assay: S3I-201 in cultured renal interstitial fibroblasts (immunoblot, qRT-PCR); assay type: cell-based, rat
Description: Cell culture and treatments. NRK-49F cells were cultured in Dulbecco's modified eagle's medium (DMEM) (Sigma-Aldrich, St. Louis, Mo.) containing 10% fetal bovine serum (FBS), 0.5% penicillin and streptomycin in an atmosphere of 5% CO2 and 95% air at 37° C. Western blot analysis and Sirius red and immunofluorescent staining were carried out according to standard methods. Quantitative real-time PCR. Real time qRT-PCR amplifications were performed in 20 μl reactions. The amplification protocol was as follows: denaturation for 10 minutes and enzyme activation at 95° C., 40 cycles of 95° C.×10 sec, 59° C.×30 sec, and 72° C.×20 sec, followed by one step […] at 72° C. for 5 minutes. Relative mRNA abundance was determined from the ratios of specific mRNA to 18S ribosomal RNA measured in the same samples, and fold change was calculated relative to the group of sham-operated mice with vehicle treatment.

obstructive kidney (UUO) = assay: UUO model, daily S3I-201 treatment; assay type: in vivo, mouse; conditions: for STAT3 phosphorylation: 10 mg/kg i.p. daily
Description: Unilateral […] obstruction (UUO) model and S3I-201 treatment. The UUO model was established in male C57 black mice that weighed 20-25 g (Jackson Laboratory, Bar Harbor, Me.) as described previously. The contralateral kidneys were used as controls. To examine the efficacy of S3I-201 in renal fibrosis after UUO injury, S3I-201 (10 mg/kg) in 50 μl of dimethyl sulfoxide (DMSO) was intraperitoneally administered to mice immediately after ureter ligation and then given daily for 6 or 13 days. Mice were randomized into 4 groups with 6-7 mice in each group as follows: (1) sham injury with DMSO as vehicle; (2) sham injury with S3I-201; (3) UUO injury with DMSO; (4) UUO injury with S3I-201.
Western blot analysis and Sirius red and immunofluorescent staining were carried out according to standard methods.
Quantitative real-time PCR. Real time qRT-PCR amplifications were performed in 20 μl reactions. The amplification protocol was as follows: denaturation for 10 minutes and enzyme activation at 95° C., 40 cycles of 95° C.×10 sec, 59° C.×30 sec, and 72° C.×20 sec, followed by one step […] at 72° C. for 5 minutes. Relative mRNA abundance was determined from the ratios of specific mRNA to 18S ribosomal RNA measured in the same samples, and fold change was calculated relative to the group of sham-operated mice with vehicle treatment.
ELISA. Protein levels of TGF-β1, TNF-α, and IL-1β in kidney homogenates were determined using specific sandwich enzyme immunometric assay kits, ELISA Ready-SET-Go (eBioscience, Inc. San Diego, Calif.) as described previously. The results were normalized by total protein content in kidney homogenates.
In situ TUNEL assays. Terminal deoxynucleotidyl transferase biotin-dUTP nick end-labeling (TUNEL) staining was used to detect DNA strand breaks using a detection kit, according to the instructions provided by the manufacturer. The number of TUNEL-positive nuclei per field was evaluated in five fields per section and five sections per kidney.

[1] = dose- and time-dependent, 24 h dose series, 50 μM time course

## Cc1ccc(S(=O)(=O)OCC(=O)Nc2ccc(C(=O)O)c(O)c2)cc1 [S3I-201]
NRK-49F cells; 100 μM, 3 h
  expression of p-STAT3: complete inhibition
NRK-49F cells; 5% FBS, 50 μM S3I-201, 6 h
  TGF-β1 mRNA expression: significantly decreased
  TβRII mRNA expression: significantly decreased
  TβRIII mRNA expression: significantly decreased
NRK-49F cells; 3 h, dose dependent
  expression of p-STAT1: increased
NRK-49F cells; 3 h, indicated concentrations
  STAT5 phosphorylation: did not affect
NRK-49F cells; [1]
  expression of fibronectin: dramatically decreased
  expression of α-SMA: dramatically decreased
Obstructive kidney (UUO); 10 mg/kg daily for 7 days
  apoptosis of interstitial cells (TUNEL): increased apoptosis
  apoptosis of renal tubular cells (TUNEL): did not induce apoptosis
  proliferation of interstitial cells (phospho-histone H3 Ser 10): decreased their proliferation
Obstructive kidney (UUO); 10 mg/kg daily, day 7
  ICAM-1 mRNA expression: reduced
  IL-1β mRNA expression: reduced
  IL-1β protein (ELISA): significantly suppressed
  Sirius red-positive areas: significantly reduced
  TGF-β1 mRNA expression: reduced their levels
  TGF-β1 protein (ELISA): decreased
  TNF-α mRNA expression: reduced
  TNF-α protein (ELISA): significantly suppressed
  TβRI mRNA expression at the basal level: not affected
  TβRII mRNA expression: reduced their levels
  TβRIII mRNA basal level: reduced the basal level
  UUO injury-induced MCP-1 mRNA expression: did not affect
  UUO-induced collagen type 1 mRNA expression: attenuated this response
  basal level of collagen type 1 expression in control kidneys: did not affect
  basal level of α-SMA expression in control kidneys: did not affect
  collagen type 1 expression in obstructive kidneys: decreased collagen type 1 to the basal level
  decrease in expression of ECM components (Sirius red, semi-quantitative): approximately 60%
  expression of snail: did not affect
  expression of β-catenin: did not affect
  fibronectin expression (immunoblot densitometry): blocked
  fibronectin expression (immunostaining): decreased its expression
  leukocyte infiltration (naphthol AS-D chloroacetate esterase staining): reduced leukocyte infiltration to basal levels
  α-SMA expression in obstructive kidneys: inhibited
Obstructive kidney (UUO); 10 mg/kg daily, day 7 and day 14
  total STAT3 expression: not affected
Obstructive kidney (UUO); 10 mg/kg daily, day 14
  collagen type 1 expression: decreased
  α-SMA expression: decreased
Obstructive kidney (UUO); day 7
  STAT3 phosphorylation: largely suppressed
Obstructive kidney (UUO); day 14
  STAT3 phosphorylation: small inhibition
